Assay [1] deals with T1, Adenosine receptor A2b (Homo sapiens) (UniProt P29275).
T1 sequence (whole entry): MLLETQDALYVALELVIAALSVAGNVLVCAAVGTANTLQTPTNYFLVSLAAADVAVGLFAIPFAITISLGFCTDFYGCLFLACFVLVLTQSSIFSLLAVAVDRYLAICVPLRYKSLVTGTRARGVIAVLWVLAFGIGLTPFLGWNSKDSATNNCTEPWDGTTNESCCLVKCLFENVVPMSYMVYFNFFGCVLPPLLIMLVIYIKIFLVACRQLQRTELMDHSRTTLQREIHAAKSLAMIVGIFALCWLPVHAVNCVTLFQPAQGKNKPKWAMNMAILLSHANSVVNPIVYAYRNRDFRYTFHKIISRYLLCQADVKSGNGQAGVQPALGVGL
Put plainly: Agonist activity at human A2B receptor expressed in CHO cells assessed as induction of calcium mobilization by Fluo-4 dye based fluorescence assay. It is filed as functional, cell-based. Background: Calcium flux is commonly read through the fluorescence of an indicator in the cells.

Assay [2] has as its target T1, Adenosine receptor A2b (Homo sapiens). Put plainly: Agonist activity at human A2B receptor expressed in CHOK1 cells expressing ADORA2B-CRE-bla assessed as induction of cAMP accumulation by FRET assay. Format: functional, cell-based. (In general: Changes in cAMP serve as a functional read-out for many G protein-coupled receptors.)

The source made the active and inactive calls. The rule behind the calls is not given here.

Regarding `Nc1ncnc2c1ncn2[C@@H]1O[C@H](CO)[C@@H](O)[C@H]1O`, the result in assay [1] was Active. `Nc1ncnc2c1ncn2[C@H]1O[C@H](COP(O)(O)=S)[C@@H](O)[C@H]1O`: the Activity entry in assay [1] is “Dose-dependent effect”. Moreover, in assay [2], the outcome was inactive.
